This is an account of results in US9975860B2, “Anti-angiogenic compounds” (UNIVERSITY COLLEGE DUBLIN—NATIONAL UNIVERSITY OF IRELAND, …, priority 2014, dated 2018).

SMILES strings stand for the structures. “Also recorded” adds a separate entry of the source.

One series concerns VEGF. The experiment in a line: Multiplex ELISA of HMEC media: VEGF. As to conditions: compound-treated HMECs, 16 hours. Type of series: cell-based, human. Here is the method:
(§1) Dermal-derived Human Microvascular Endothelial Cells (HMEC) were maintained at 37° C./5% CO2 in MCDB-131 medium (Gibco/cat: 10372) supplemented with 10% FCS, L-Glutamine (Gibco/cat: 25030-032), 1 μl/ml Hydrocortisone (Sigma/cat: H0396), 10 ng/ml EGF (BD Biosciences 354001) and 1% Pen-Strep (Gibco/cat: 151040-148). The wells of a μ-slide angiogenesis plate (IBIDI Cat no: 81506) were coated with a layer of matrigel matrix (BD 356234) which was left to polymerize for 45 minutes at 37° C. HMECs were grown to 80% confluence, washed with DPBS (Invitrogen) and trypsinised using 2 ml TrypLE™ Express (1×) (Invitrogen). Cells were centrifuged following flask detachment at 1200 rpm for 4 minutes. The cell pellet was resuspended in 3 ml full media and a cell count was performed using a haemocytometer. 7.5×10^3 cells were pipetted into each matrigel coated well of the μ-slide angiogenesis plate and treated with either 0.1% DMSO or 1, 3.16 or 10 μM compound 4 or compound 18. The slide was kept at 37° C./5% CO2 during cell tube formation. After 16 hours, 50 μl of media was removed from each of the Ibidi wells and 25 μl of the media was run in each well of a Meso Scale Discovery (MD, USA) custom multiplex ELISA containing the following analytes: Ang-1, Ang-2, VEGF, bFGF, PAI-1, sICAM and sVCAM. The ELISA was run as per manufacturer's instructions.
For orientation: ELISA stands for enzyme-linked immunosorbent assay.

The next series deals with Ang-1. Nature of the series: Multiplex ELISA of HMEC media: Ang-1. The class given is cell-based, human. The conditions noted are these: compound-treated HMECs, 16 hours. The protocol: as §1
Series [1] deals with human retinal (ARPE-19) cells. The experiment in a line: MTT cell viability assay in ARPE-19. The class given is cell-based. As to conditions: 5, 10, 25, 50, 75 or 90 μM, 96 hours. The protocol:
(§2) A 3-(4,5-dimethylthiozol-2-yl)-2,5-diphenyltetrazolium bromide (MTT) dye reduction assay was carried out to determine the cytotoxicity of each compound on either human microvascular endothelial cells (HMECs) or human retinal pigmented epithelium cells (ARPE-19). Cells were maintained in a 95% air and 5% CO2 atmosphere at 37° C. in Dulbecco modified Eagle medium (DMEM, Sigma Aldrich) with 10% fetal bovine serum, 2 mM Gibco® L-glutamine and 100 units/ml penicillin, 1 mg/ml streptomycin (Invitrogen) supplementation. On day 1, cells were trypsinized (Trypsin-EDTA 1×) and seeded 1.4×10^4 cells per well of a 96 well plate and incubated overnight. On day 2, cells were serum staved in DMEM with L-glutamine and penicillin-streptomycin supplementation for 24 h. On day 3, cells were drug treated for 24 h (HMECs) or 96 h (ARPE-19 cells) with 0.1% DMSO or 10 μM to 90 μM of each compound 4, 8, 15, 18 or 20, with 4 replicate wells of each compound. After 24-96 h, cells were incubated with […] 5 mg/ml MTT labelling Reagent (Roche) for 2 h. Subsequently, when purple formazan crystals formed cells were incubated with 1× solubilisation solution (Roche) for 4 h and absorbance read at 570 nm using a microplate reader.

For another series, the system named is Ang-2. The experiment in a line: Multiplex ELISA of HMEC media: Ang-2. Type of series: cell-based, human. As to conditions: compound-treated HMECs, 16 hours. Here is the method: as §1
The subject of another series is sVCAM-1. The experiment in a line: Multiplex ELISA of HMEC media: sVCAM-1. The class given is cell-based, human. The conditions noted are these: compound-treated HMECs, 16 hours. Here is the method: as §1
For a further series, the system named is bFGF. The experiment in a line: Multiplex ELISA of HMEC media: bFGF. The class given is cell-based, human. The conditions noted are these: compound-treated HMECs, 16 hours. Here is the method:
as §1

Series [2] deals with human endothelial (HMEC) cells. Nature of the series: MTT cell viability assay in HMEC. As to conditions: 10 μM, 24 hours. Type of series: cell-based. The protocol: as §2
On the technique in general: Formazan colour is commonly taken as a measure of viable cells.

The subject of another series is sICAM-1. Nature of the series: Multiplex ELISA of HMEC media: sICAM-1. Type of series: cell-based, human. As to conditions: compound-treated HMECs, 16 hours. The protocol:
as §1

The test system of series [3] is intersegmental vasculature in zebrafish. Nature of the series: Quantification of intersegmental vessel number in zebrafish. The class given is in vivo. The conditions noted are these: 10 μM; zebrafish embryos treated 6 hpf to 48 hpf. The protocol: At 6 hours post fertilisation, 5 embryos per well were placed in 400 μL of embryo medium/0.1% DMSO and incubated with 10 μM compound at 28° C. on a 14 h light/10 h dark cycle. At 48 hpf larvae were manually dechorionated, euthanised, and fixed in 4% PFA at 4° C. overnight before analysis. The larvae were then washed with PBS and transferred to depression slides for observation under epi-fluorescence in an Olympus SZX16 fluorescent microscope. The number of intersegmental vessels was counted and the average number was graphed for each drug.
All experimental protocols were carried out as per example 1 and 2. Briefly, zebrafish larvae were treated with 10 μM of AT-051/41206012 (chemical name 2-[2-(2-methoxyphenyl)ethenyl]pyrazine) purchased from Specs (The Netherlands). At 6 or 48 hours post fertilisation (hpf), 5 embryos per well were placed in 400 μl of Embryo Medium/0.1% DMSO and incubated with 10 μM AT-051/41206012 at 28° C. on a 14 h light/10 h dark cycle. Larvae were treated from 6-48 hpf (intersegmental vessel study) or from 48 to 120 hpf (primary hyaloid vessel study). At the end of the study, larvae were euthanized and fixed in 4% PFA at 4° C. overnight before analysis.
The number of intersegmental vessels was counted and the average number was graphed for each drug. Right lenses were dissected from the larvae and transferred to depression slides for observation and the number of primary hyaloid vessels radiating from the back of the lens (3-4 main branches at 5 dpf in controls and previously described), was counted and the average number was graphed for each drug.

The test system of series [4] is human microvascular endothelial cells (HMECs). The experiment in a line: In vitro tubule formation in human microvascular endothelial cells. As to conditions: 1, 3.16 and 10 μM, 16 hours, HMEC on matrigel. Type of series: cell-based. Here is the method:
as §1, with “the cells were imaged by phase contrast microscopy using the Zeiss Axiovert 200 M microscope. Total tubule length” for “50 μl of media”, “quantified using Zeiss Axiovision image analysis software. Calcein AM stain (C3099 Invitrogen) was prepared at 2 μg/ml final concentration” for “removed from each of the Ibidi wells”, “incubated with HMEC cells” for “25 μl of the media was run in each well of a Meso Scale Discovery (MD, USA) custom multiplex ELISA containing the”, “tubule formation for 30 minutes at 37° C. […]” for “analytes: Ang-1, Ang-2, VEGF, bFGF, PAI-1, sICAM and sVCAM. The ELISA was run as per manufacturer's instructions.”

`Oc1ccccc1C#Cc1cnccn1` [Compound 18, 2-[2-(Pyrazin-2-yl)ethynyl]phenol]: the “expression of VEGF” value in the series with VEGF is on record as “not significantly different to control-treated HMECs”. Besides, in the series with Ang-1, the “expression of Ang-1” value is given as “not significantly different to control-treated HMECs”. Moreover, the “cell viability (MTT assay)” value in [1] and in [2] was “does not affect cell viability” throughout. Also, in the series on Ang-2, the “expression of Ang-2” value is “significantly reduce; also recorded: reduce expression of Ang-2 and PAI-1 in human endothelial microvascular cells in a statistically significant manner”. Further, the “expression of sVCAM-1” value with sVCAM-1 was “not significantly different to control-treated HMECs”. For the same molecule, the “expression of bFGF” value in the series with bFGF is “not significantly different to control-treated HMECs”. For the same molecule, the “expression of sICAM-1” value with sICAM-1 is “not significantly different to control-treated HMECs”. Besides, the “inhibition of developmental angiogenesis of intersegmental vessels (number of intersegmental vessels)” value in [3] was “inhibit developmental angiogenesis of zebrafish intersegmental vessels in a statistically significant manner”. For the same molecule, the “tubule formation (total tubule length)” value in series [4] is given as “significantly reduce tubule formation; also recorded: inhibit in vitro tubule formation in a statistically significant manner”.

`Cl.Oc1ccccc1/C=C/c1cnccn1` [Compound 4, (E)-2-[2-(Pyrazin-2-yl)vinyl]phenol hydrochloride]: in the series with VEGF, the “expression of VEGF” value is “not significantly different to control-treated HMECs”. Moreover, in the series on Ang-1, the “expression of Ang-1” value is on record as “not significantly different to control-treated HMECs”. For the same molecule, the “cell viability (MTT assay)” value in series [1] and in series [2] was “does not affect cell viability” throughout. In the series with Ang-2 (hydrochloride), the “expression of Ang-2” value was “significantly reduce; also recorded: reduce expression of Ang-2 and PAI-1 in human endothelial microvascular cells in a statistically significant manner”. For the same molecule, the “expression of sVCAM-1” value in the series with sVCAM-1 is “not significantly different to control-treated HMECs”. For the same molecule, the “expression of bFGF” value in the series with bFGF is recorded as “not significantly different to control-treated HMECs”. The “expression of sICAM-1” value with sICAM-1 is “not significantly different to control-treated HMECs”. Besides, the “inhibition of developmental angiogenesis of intersegmental vessels (number of intersegmental vessels)” value in [3] is recorded as “inhibit developmental angiogenesis of zebrafish intersegmental vessels in a statistically significant manner”. Besides, in series [4] (hydrochloride), the “tubule formation (total tubule length)” value was “significantly reduce tubule formation; also recorded: inhibit in vitro tubule formation in a statistically significant manner”.
